Laboratory results from US4091211A, “Cephalosporins” (Hoffmann-La Roche Inc., priority 1974, dated 1978).
Where a name gives a salt, the structure may show the parent alone.

Columns and labels:
[1] = acute toxicity (LD50 i.v. in the mouse); settings: in vivo, iv
Escherichia coli 1346 = test: antimicrobial activity, CD50 in the mouse upon subcutaneous injection, Escherichia coli 1346; assay type: in vivo
Excerpt: (§1) The results represent CD50 values in the mouse upon subcutaneous injection. In the table, compound A is (7R)-3- [[(1,4,5,6-tetrahydro-4-ethyl-5,6-dioxo-as-triazin-3-yl)-thio]methyl]-7-[2-(5-oxo-1,2,3-oxadiazolidin-3-yl)-acetamido]-3-cephem-4-carboxylic acid sodium salt and compound B is (7R)-3- [[(1,4,5,6-tetrahydro-4-ethyl-5,6-dioxo-as-triazin-3-yl)-thio]methyl]-7-[2(1-H-tetrazol-1-yl)-acetamido]-3-cephem-4-carboxylic acid sodium salt.

[2] = tested on: Staphylococcus aureus Schoch (Penicillin-sensitive); test: antimicrobial activity, CD50 in the mouse upon subcutaneous injection, Staphylococcus aureus Schoch; assay type: in vivo
Excerpt: as §1

[3] = tested on: Staphylococcus aureus 887 (Penicillin-sensitive); test: antimicrobial activity, CD50 in the mouse upon subcutaneous injection, Staphylococcus aureus 887; assay type: in vivo
Excerpt: as §1

| Structure (SMILES) | LD50 ([1]; i.v. in the mouse, acute toxicity) | CD50 (Escherichia coli 1346) | CD50 [2] | CD50 [3] | LD50 ([1]; mouse) |
| --- | --- | --- | --- | --- | --- |
| CCn1c(SCC2=C(C(=O)O)N3C(=O)[C@@H](NC(=O)C[n+]4cc([O-])on4)[C@H]3SC2)n[nH]c(=O)c1=O [A, sodium salt] | 2000 to 4000 mg/kg | 0.38 mg/kg | 0.25 mg/kg | 5.5 mg/kg |  |
| CCn1c(SCC2=C(C(=O)O)N3C(=O)[C@@H](NC(=O)Cn4cnnn4)[C@H]3SC2)n[nH]c(=O)c1=O [B, (7R)-3-[[(1,4,5,6-tetrahydro-4-ethyl-5,6-dioxo-as-triazin-3-yl)-thio]methyl]-7-[2(1-H-tetrazol-1-yl)-acetamido]-3-cephem-4-carboxylic acid sodium salt] |  | 0.9 mg/kg | 0.6 mg/kg | 3.2 mg/kg | 1000 to 2000 mg/kg |
